Experiments:
[1] = tested on: IFN-γ, IL-17A, IL-1β, IL-10 and Foxp3 expression in spinal cord lesions; test: mRNA expression of inflammatory and immunomodulatory factors in spinal cord of EAE mice (real-time PCR); type: in vivo, mouse; conditions: 20 mg/kg i.p., 42nd day, compared to solvent control
Text: On the 42nd day of the experiment, the spinal cord of the mouse was excised to prepare an mRNA sample. In order to extract mRNA, the spinal cord tissue was ground with a homogenizer to obtain a homogeneous suspension. […] Then, cDNA was synthesized from the isolated RNA by reverse transcription, and the expression of inflammatory cytokines was investigated through real-time polymerase chain reaction (PCR) using iQ SYBR-Green Supermix (Bio-rad) in the CFX96 (Bio-rad) detection system. Relative values of the enzyme expression levels were compared by the ΔΔct method using GAPDH as a control enzyme. Herein, one (1) fold was set using the WT mouse spinal cord as a control.
The real-time polymerase chain reaction was implemented under the conditions of cycles at an annealing temperature of 58° C., and the following primer sequences were used.

[2] = tested on: C57BL/6 mice with autoimmune encephalomyelitis (EAE); test: Experimental autoimmune encephalomyelitis (EAE) model of multiple sclerosis, severity index; type: in vivo, mouse; conditions: 20 mg/kg intraperitoneally daily 12th to 17th day
Protocol: On day 0, myelin oligodendrocyte glycoproteins 35-55 (MOG 35-55, Peptron) (200 μg), heat-killed Mycobacterium tuberculosis (Difco, Cat No. 231141) (500 μg), and adjuvant (Complete Freund's adjuvant, Sigma Aldrich, Cat No. F5506) were mixed together and then submerged for 7 minutes. After subcutaneous injection of 100 μl of the submerged peptide into both flanks of each of C57BL/6 mice (7 weeks old, female, 17±2 g), 100 μl of pertussis toxin (Sigma Aldrich. Cat No. P2980) (200 ng) was administered intravenously to the tail.
On the 2nd day of the experiment, the same amount of pertussis toxin was administered intravenously. The mice were checked for immersion leaking from the injected site, and visually observed from the 7th day of the experiment in order to confirm the onset of multiple sclerosis.
The multiple sclerosis index was visually observed and recorded at an interval of 2 days from the 7th day of the experiment in the severity index system classified into 0-5 stages, and autoimmune encephalomyelitis symptoms were indexed according to the following items (see Table 4).

[3] = tested on: AOM/DSS-induced colon cancer in C57BL/6 mice; test: AOM/DSS-induced colon cancer mouse model, number of tumors per colon; type: in vivo; conditions: 20 mg/kg oral daily 7th to 21st day, 93rd day, solvent control 11.33±4.33
Text: Sterile distilled water was provided for drinking from the 8th day of the experiment.

[4] = scale 0-5, solvent control 3.33±0.17

## O=C(Cc1c[nH]c2ccc(Cl)cc12)Nc1ccc(Cl)c(F)n1 [Compound 26, 2-(5-chloro-1H-indol-3-yl)-N-(5-chloro-6-fluoropyridin-2-yl)acetamide]
[1]
  expression level of Foxp3 in spinal cord lesions: significantly increased
  expression level of IFN-γ in the spinal cord lesion: significantly reduced
  expression level of IL-1β in the spinal cord lesion: significantly reduced
  expression level of IL-10 in spinal cord lesions: significantly increased
  expression level of IL-17A in the spinal cord lesion: significantly reduced
[2]
  treatment effects on EAE severity index compared to solvent control from the 16th day, maintained after administration was stopped: statistically significant treatment effects
[2]; [4]
  severity index (EAE), 18th day, acute reaction period: 1.33±0.56
  severity index (EAE), 36th day, chronic reaction period: 1.33±0.22
[3]
  number of tumors in the colon: 3.17±1.17

Reference: patent publication US20230020507A1, “COMPOUND AND USE THEREOF IN TREATING AUTOIMMUNE DISEASES” (PARENCHYMA BIOTECH INC., priority 2019, published 2023)
